Data set [1] deals with rat. The note with it: Multigenerational reproductive toxicity study, sprague dawley, Oral, Feed, dose end: 2 generation.
Data set [2] relates to rat. The note with it: Prenatal developmental toxicity study, wistar, Oral, Gavage/Intubation, dose end: 8 GD, group: maternal.
In data set [3] the test system is mouse. The settings on record: Subchronic oral toxicity in rodents, b6c3f1, Water, dose end: 13 week.
Data set [4] concerns mouse. The note with it: Carcinogenicity, b6c3f1, Oral, Water, dose end: 2 year, group: systemic.
Data set [5] concerns rat. The note with it: Subchronic oral toxicity in rodents, fischer, Water, dose end: 13 week, group: systemic.
The test system of data set [6] is dog. The note with it: Subchronic oral toxicity in nonrodent, beagle, Capsule, dose end: 90 day, group: systemic, systemic / clinical chemistry / alanine aminotransferase (alt/sgpt) / alanine aminotransferase (alt/sgpt) + systemic / clinical chemistry / ….
Data set [7] relates to rat. The note with it: Subchronic oral toxicity in rodents, sprague dawley, Gavage/Intubation, dose end: 90 day, group: systemic.
Data set [8] relates to rat. The note with it: Multigenerational reproductive toxicity study, sprague dawley, Oral, Gavage/Intubation, dose end: 1 generation.
For data set [9], the system named is dog. The note with it: Subchronic oral toxicity in nonrodent, beagle, Feed, dose end: 13 week, group: systemic.
The test system of data set [10] is dog. The settings on record: Chronic toxicity; beagle; Oral; Feed; dose end: 52 week; group: systemic; systemic / clinical chemistry / alkaline phosphatase (alp/alk) / alkaline phosphatase (alp/alk) + systemic / organ weight / liver / absolute….
Data set [11] relates to mouse. The note with it: Carcinogenicity; cd1; Oral; Feed; dose end: 18 month; group: systemic; systemic / pathology microscopic / lung / adenoma.
Data set [12] has as its system rat. The settings on record: Combined chronic toxicity/carcinogenicity; sprague dawley; Oral; [Not Specified]; dose end: 24 month; group: systemic; systemic / hematology / erythrocyte (rbc) count differential / erythrocyte (rbc).
Data set [13] relates to dog. The note with it: Subchronic oral toxicity in nonrodent, beagle, Feed, dose end: 90 day, group: systemic, systemic / in life observation / clinical signs / pulse/pressure + systemic / organ weight / liver / nos.
Data set [14] relates to mouse. The settings on record: Carcinogenicity, cd1, Oral, Feed, dose end: 105 week, group: systemic.
For data set [15], the system named is rat. The note with it: Combined chronic toxicity/carcinogenicity, sprague dawley, Oral, Feed, dose end: 30 month, group: systemic.
In data set [16] the test system is dog. The settings on record: Chronic toxicity; beagle; Oral; Feed; dose end: 52 week; group: systemic; systemic / clinical chemistry / alkaline phosphatase (alp/alk) / alkaline phosphatase (alp/alk) + systemic / clinical chemistry / ….
For data set [17], the system named is rat. The settings on record: Combined chronic toxicity/carcinogenicity; fischer; Oral; Feed; dose end: 78 week; group: systemic; systemic / pathology microscopic / spleen / fibrosis.
Data set [18] deals with mouse. The note with it: Combined chronic toxicity/carcinogenicity, b6c3f1, Oral, Feed, dose end: 78 week, group: systemic.
[19] abbreviates: group: offspring, developmental / developmental landmark / vaginal opening / vaginal opening + systemic / in life observation / body weight / offspring (pup) ….
[20] abbreviates: group: parental, systemic / in life observation / body weight / body weight + systemic / in life observation / body weight / body weight gain.
The mark [21] stands for this setting: reproductive / reproductive performance / postimplantation loss / postimplantation loss + systemic / in life observation / body weight / ….
Setting [22] is: systemic / in life observation / food consumption / food consumption.
The mark [23] stands for this setting: group: maternal, reproductive / reproductive performance / estrous cycle / abnormal.
Where [24] appears, read: group: systemic, systemic / in life observation / body weight / body weight + systemic / in life observation / body weight / body weight gain + systemic / in….
[25] abbreviates: systemic / in life observation / body weight / body weight + systemic / organ weight / lung / absolute + systemic / pathology microscopic / ….
The mark [26] stands for this setting: systemic / pathology microscopic / liver / angiectasis + systemic / pathology microscopic / liver / eosinophilic focus + systemic / ….
[27] abbreviates: systemic / hematology / [other] / [other] + systemic / hematology / jolly bodies / jolly bodies + systemic / hematology / leukocyte (wbc) ….
Setting [28] is: systemic / hematology / leukocyte (wbc) count differential / leukocyte (wbc) + systemic / hematology / lymphocyte / lymphocyte.
Where [29] appears, read: systemic / in life observation / body weight / body weight gain.
The mark [30] stands for this setting: systemic / in life observation / body weight / body weight gain + systemic / clinical chemistry / cholesterol / cholesterol + systemic / ….
The mark [31] stands for this setting: group: offspring, systemic / organ weight / kidney / absolute + systemic / organ weight / liver / absolute.
The mark [32] stands for this setting: group: offspring, systemic / organ weight / kidney / absolute + systemic / organ weight / liver / absolute + systemic / in life observation / body weight / ….
Where [33] appears, read: group: parental, systemic / organ weight / kidney / absolute + systemic / organ weight / liver / absolute.
[34] abbreviates: group: parental, systemic / organ weight / kidney / absolute + systemic / organ weight / liver / absolute + systemic / in life observation / body weight / ….
The mark [35] stands for this setting: group: reproductive, reproductive / reproductive performance / reproductive performance other / NOS + reproductive / reproductive performance / fertility / ….
Where [36] appears, read: systemic / clinical chemistry / albumin / albumin + systemic / clinical chemistry / albumin-globulin ratio / albumin-globulin ratio + ….
The mark [37] stands for this setting: systemic / in life observation / body weight / body weight + systemic / in life observation / body weight / body weight gain + systemic / ….
[38] abbreviates: systemic / clinical chemistry / thyroxine (t4) / thyroxine (t4), total + systemic / organ weight / liver / absolute + systemic / organ ….
Where [39] appears, read: systemic / in life observation / body weight / body weight.
[40] abbreviates: systemic / in life observation / body weight / body weight + systemic / pathology microscopic / spleen / hemangiosarcoma.

Where only a bound is given, the exact number is not on record here.

The record followed here is EPA's ToxRefDB 2.

Regarding `CC(C)(C)CC(C)(C)c1ccc(O)cc1` [4-(1,1,3,3-Tetramethylbutyl)phenol], the results for the LEL in data set [1] (setting [19]), in data set [1] (setting [20]) and in data set [2] (setting [22]) were 100 mg/kg/day, 100 mg/kg/day and 15.6 mg/kg/day, respectively. The LOAEL in data set [1] (setting [19]) was greater than 100 mg/kg/day; in data set [1] (setting [20]), greater than 100 mg/kg/day; in data set [2] (setting [21]) it was greater than 125 mg/kg/day. In addition, the NEL was 10 mg/kg/day in [1] (setting [19]), 10 mg/kg/day in [1] (setting [20]) and less than 15.6 mg/kg/day in data set [2] (setting [22]). In addition, the NOAEL in data set [1] (setting [19]) is no less than 100 mg/kg/day; in [1] (setting [20]), no less than 100 mg/kg/day; in [2] (setting [21]) it was no less than 125 mg/kg/day.
Regarding `CCOC(N)=O` [Urethane], the LEL came out at 147 mg/kg/day in data set [3] (setting [23]); 147 mg/kg/day in [3] (group: systemic, systemic / in life observation / body weight / body weight + systemic / in life observation / body weight / body weight gain + systemic / …); 0.035 mg/kg/day in data set [4] (setting [26]); 11 mg/kg/day in [5] (setting [28]). Also, the LOAEL in data set [3] (setting [23]) is greater than 1330 mg/kg/day; in data set [3] (setting [24]), greater than 1330 mg/kg/day; in [4] (setting [25]) it was 0.325 mg/kg/day; in [5] (setting [27]), greater than 525 mg/kg/day. For the same molecule, the NEL in [3] (setting [23]) was 44 mg/kg/day; in [3] (setting [24]), 44 mg/kg/day; in [4] (setting [26]) it was less than 0.035 mg/kg/day; in data set [5] (setting [28]) it was less than 11 mg/kg/day. In addition, the NOAEL in [3] (setting [23]) was no less than 1330 mg/kg/day; in data set [3] (setting [24]), no less than 1330 mg/kg/day; in data set [4] (setting [25]) it was 0.105 mg/kg/day; in [5] (setting [27]) it was no less than 525 mg/kg/day.
For `CCOc1ccc2c(c1)C(C)=CC(C)(C)N2` [Ethoxyquin], the LEL was 4 mg/kg/day in [6]; 40 mg/kg/day in data set [7] (setting [29]); 75 mg/kg/day in data set [8] (setting [31]); 75 mg/kg/day in data set [8] (setting [33]); 300 mg/kg/day in [8] (setting [35]). The LOAEL in [6] was 4 mg/kg/day; in [7] (setting [29]), 40 mg/kg/day; in data set [8] (setting [32]), greater than 300 mg/kg/day; in [8] (setting [34]), greater than 300 mg/kg/day; in data set [8] (setting [35]), greater than 300 mg/kg/day. In addition, the NEL is 2 mg/kg/day in data set [6]; 20 mg/kg/day in [7] (setting [30]); less than 75 mg/kg/day in data set [8] (setting [31]); less than 75 mg/kg/day in data set [8] (setting [33]); 150 mg/kg/day in [8] (setting [35]). Further, the NOAEL in data set [6] is 2 mg/kg/day; in data set [7] (setting [30]), 20 mg/kg/day; in data set [8] (setting [32]), no less than 300 mg/kg/day; in [8] (setting [34]), no less than 300 mg/kg/day; in data set [8] (setting [35]), no less than 300 mg/kg/day.
On to `CCC(C)(NC(=O)c1cc(Cl)c(C)c(Cl)c1)C(=O)CCl` (stereo not drawn) [Zoxamide], for which the LOAEL in data set [9] (setting [36]) was 1050 mg/kg/day; in [10] it was 255 mg/kg/day; in data set [11], greater than 1290 mg/kg/day; in data set [12], greater than 1060 mg/kg/day. Moreover, the NEL was 61.8 mg/kg/day in [9] (setting [36]), 50 mg/kg/day in [10], 326 mg/kg/day in data set [11] and less than 51 mg/kg/day in data set [12]. The NOAEL was 322 mg/kg/day in data set [9] (setting [36]), 50 mg/kg/day in data set [10], no less than 1290 mg/kg/day in data set [11] and no less than 1060 mg/kg/day in data set [12]. The LEL in data set [9] (systemic / organ weight / liver / absolute + systemic / organ weight / liver / relative to body weight) was 322 mg/kg/day; in [10], 255 mg/kg/day; in [11], 1290 mg/kg/day; in data set [12] it was 51 mg/kg/day.
Consider `Clc1ccccc1-c1nnc(-c2ccccc2Cl)nn1` [Clofentezine], for which the LEL in data set [13] was 80 mg/kg/day; in data set [14] (systemic / pathology gross / liver / mass) it was 50.7 mg/kg/day; in data set [15] (setting [38]), 17.3 mg/kg/day; in data set [16] it was 25 mg/kg/day. For the same molecule, the LOAEL in [13] was 80 mg/kg/day; in [14] (setting [37]), greater than 544 mg/kg/day; in data set [15] (setting [38]), 17.3 mg/kg/day; in data set [16] it was 25 mg/kg/day. The NEL in [13] is less than 80 mg/kg/day; in data set [14] (setting [37]), 5 mg/kg/day; in [15] (systemic / pathology microscopic / liver / hypertrophy + systemic / pathology microscopic / liver / vacuolization), 1.72 mg/kg/day; in data set [16], 1.25 mg/kg/day. In addition, the NOAEL in data set [13] was less than 80 mg/kg/day; in [14] (setting [37]) it was no less than 544 mg/kg/day; in [15] (setting [38]), 1.72 mg/kg/day; in data set [16] it was 1.25 mg/kg/day.
As to `Nc1ccc(Cl)cc1` [4-Chloroaniline], in data set [17], the LEL was found to be 12.5 mg/kg/day, the LOAEL was 12.5 mg/kg/day, the NEL was less than 12.5 mg/kg/day and the NOAEL was less than 12.5 mg/kg/day. Also, in [18] (setting [39]), the LOAEL worked out at 375 mg/kg/day and the NOAEL was less than 375 mg/kg/day. Moreover, in data set [18] (setting [40]), the LEL is 375 mg/kg/day and the NEL was less than 375 mg/kg/day.

By LOAEL is commonly meant the lowest tested level that showed an adverse finding. The term NOAEL denotes the highest tested level that showed no adverse finding.
